Results: patent publication US11484543B2, “Compositions and methods for diagnosing and treating diseases and disorders associated with mutant KCNJ5” (The Rockefeller University, priority 2017, dated 2022)

Target: T1, KCNJ3/KCNJ5^WT (Homo sapiens, UniProt P48544)
T1 construct: GFP; expressed in transfected cells; host or cells: HEK293T (American Type Culture Collection), transient co-transfection
T1 sequence (P48544 1-419): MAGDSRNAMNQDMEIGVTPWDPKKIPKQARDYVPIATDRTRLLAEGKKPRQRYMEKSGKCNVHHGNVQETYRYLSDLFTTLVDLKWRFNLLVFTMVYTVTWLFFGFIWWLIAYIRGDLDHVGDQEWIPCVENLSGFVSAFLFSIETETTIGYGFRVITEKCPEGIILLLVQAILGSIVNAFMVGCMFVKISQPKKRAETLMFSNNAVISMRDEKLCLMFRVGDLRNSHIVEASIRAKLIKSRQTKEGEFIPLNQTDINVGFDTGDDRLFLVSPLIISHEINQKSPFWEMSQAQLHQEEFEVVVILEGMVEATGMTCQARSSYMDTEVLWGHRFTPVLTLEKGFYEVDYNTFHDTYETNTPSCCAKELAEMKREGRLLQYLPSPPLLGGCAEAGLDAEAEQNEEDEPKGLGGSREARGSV
T1 sequence (P48549 1-501 partner): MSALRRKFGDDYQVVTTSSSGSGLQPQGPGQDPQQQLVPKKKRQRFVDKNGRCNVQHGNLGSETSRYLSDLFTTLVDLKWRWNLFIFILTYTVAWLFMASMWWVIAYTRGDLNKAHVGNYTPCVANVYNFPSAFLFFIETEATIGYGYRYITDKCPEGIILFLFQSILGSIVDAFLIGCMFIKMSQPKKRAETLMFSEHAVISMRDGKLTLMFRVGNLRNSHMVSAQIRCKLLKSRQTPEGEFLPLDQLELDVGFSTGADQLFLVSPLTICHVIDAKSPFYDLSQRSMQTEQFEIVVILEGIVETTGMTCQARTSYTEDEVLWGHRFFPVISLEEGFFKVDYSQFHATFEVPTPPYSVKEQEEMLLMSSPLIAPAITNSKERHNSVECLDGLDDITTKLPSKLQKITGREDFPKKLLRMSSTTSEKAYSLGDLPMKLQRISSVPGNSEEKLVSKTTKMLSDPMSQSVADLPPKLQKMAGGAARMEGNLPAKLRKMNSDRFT
Test: Perforated whole-cell patch clamp, KCNJ3/KCNJ5^WT heterotetramers in HEK293T cells
Type: cell-based
Conditions: 20 μM, 10 minutes after addition
Description: HEK293T cells (American Type Culture Collection) were used for transient expression of GFP-tagged KCNJ5 or KCNJ3. The cells were grown in Dulbecco's modified Eagle medium (DMEM; Invitrogen) supplemented with 10% FBS (Invitrogen) in 5% CO2 and 95% air at 37° C. Cells were grown to 50-70% confluence for transfection, and the corresponding cDNAs (Choi et al., 2011, Science 331:768-772) were simultaneously applied to the cells using TurboFect transfection reagent according to the manufacturer's protocol (Fermentas). […]
Within 24 hr after transfection, the cells were treated with trypsin-containing medium (TrypLE Express) (Gibco) for 10 minutes to detach the cells. […] Fluorescence signal (an indication of positive transfection) was detected with an intensified video imaging system including a SIT 68 camera (Long Island Industries). […] After forming a high resistance seal (>2 GΩ), the membrane capacitance was monitored until the whole-cell patch configuration was formed. The cell membrane capacitance was measured and compensated. The K/cation currents were measured from −80 mV to 20 mV with 20 mV steps by an Axon 200A patch-clamp amplifier. The currents were low-pass filtered at 1 KHz and digitized by an Axon interface (Digidata 1200) and were analyzed using the pClamp software system 9 (Axon). […]

## CC[C@H]1OC(=O)[C@H](C)[C@@H](O[C@H]2C[C@@](C)(OC)[C@@H](O)[C@H](C)O2)[C@H](C)[C@@H](O[C@@H]2O[C@H](C)C[C@H](N(C)C)[C@H]2O)[C@](C)(O)C[C@@H](C)/C(=N\OCOCCOC)[C@H](C)[C@@H](O)[C@]1(C)O [Roxithromycin, roxithromycin]
  inhibition of potassium currents in KCNJ3/KCNJ5^WT channels: no inhibition
